According to ChEMBL document CHEMBL1152998, “Structure-based virtual screening approach to identify novel classes of PTP1B inhibitors” (Eur J Med Chem, 2009):

Biological target: T1, Tyrosine-protein phosphatase non-receptor type 1 (Homo sapiens, UniProt P18031)
T1 sequence (P18031 whole entry): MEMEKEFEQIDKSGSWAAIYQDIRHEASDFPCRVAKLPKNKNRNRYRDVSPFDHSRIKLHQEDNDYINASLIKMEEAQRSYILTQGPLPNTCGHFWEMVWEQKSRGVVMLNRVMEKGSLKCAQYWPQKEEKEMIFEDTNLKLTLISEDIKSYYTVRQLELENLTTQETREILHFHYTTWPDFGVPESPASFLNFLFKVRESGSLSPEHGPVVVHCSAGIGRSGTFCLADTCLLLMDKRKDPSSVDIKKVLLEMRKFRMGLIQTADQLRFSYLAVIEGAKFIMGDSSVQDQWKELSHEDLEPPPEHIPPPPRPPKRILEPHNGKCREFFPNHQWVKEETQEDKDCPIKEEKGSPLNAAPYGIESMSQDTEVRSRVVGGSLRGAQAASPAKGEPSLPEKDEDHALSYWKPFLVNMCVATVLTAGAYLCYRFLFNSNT
Experiment: Inhibition of PTP1B by pNPP hydrolase assay

Structure (SMILES) | IC50
N#C/C(=C\c1ccc(-c2ccccc2C(=O)O)o1)C(=O)Nc1ccc2ccccc2c1 | 27 µM
CCOc1ccc(-c2csc(C(C#N)CNc3ccc4oc(=O)ccc4c3)n2)cc1 (centres undefined) | 28 µM
O=C1NC(=O)/C(=C\c2ccc(OCc3ccc(F)cc3)c(Br)c2)S1 | 11 µM
COc1cc(C)ccc1OCCn1cccc1/C=C1\C(=O)NC(=O)N(c2ccc(C)c(Cl)c2)C1=O | 35 µM
O=C1NC(=O)N(c2ccccc2)C(=O)/C1=C\c1cn(Cc2cccc3ccccc23)c2ccccc12 | 12 µM
O=C(O)c1cccc(-c2ccc(-c3nc4sc5c(c4c(=O)[nH]3)CCCC5)o2)c1 | 25 µM
O=C(O)c1cc(-c2ccc(/C=C3\NC(=O)N(c4ccccc4)C3=O)o2)ccc1Cl | 34 µM
O=C(O)c1ccc(Nc2cc3ccccc3cc2NS(=O)(=O)c2ccc(F)cc2)cc1 | 41 µM
O=C1ON=C(c2ccccc2)/C1=C\c1ccccc1OCc1ccccc1Cl | 22 µM
